Results on 63 molecules are retold here after a melting point compilation (Tetko et al.; mined from patent text by program, amines drawn as free bases though some values may be those of a salt).

What is called melting point is the temperature of the solid-liquid transition. `O=C1CC(c2cccc(-n3ccnc3)c2)=Nc2cc(OCCO)c(C#Cc3ccccc3)cc2N1`: the melting point lay within 224 to 227 °C.

`CC1(C)CC(=O)c2c(O)cc(C=Cc3ccccc3)cc2O1` returned a melting point of 116 °C.

`CCCCCCCCCCCCCCCCN1CCN(c2ccc(CCC(=O)O)cc2)CC1` yielded a melting point of 218 to 220 °C.

As for `COc1nc(Nc2cc(C)ccc2N)nc(OC)n1`, the melting point lay in the range of 180 to 183 °C.

For the molecule `CCOC(=O)c1cc2cc(NC(C)C)ccc2nn1`, the melting point was 167 to 168 °C.

`Fc1cccc(COc2ccc(I)cc2)c1` returned a melting point of 48 °C.

For the molecule `COc1cc(C=O)ccc1C1OC(CO)C(O)C(O)C1O` (stereo not drawn), the melting point lay in the range of 188 to 190 °C.

In the case of `CCCCCCCCCCCCCCCCCCOc1cc(OCCCCC(=O)OC)cc(C(=O)O)c1`, the melting point was 68 to 70 °C.

As to `Cc1nc(-c2cn(CC(F)(F)c3ccccc3)nn2)sc1C(=O)NCc1cccnc1`, the melting point fell in the range of 150 to 151 °C.

Regarding `CC(C)(C)OC(=O)NCCc1cccc(C(=O)Nc2ccc(Nc3cc(-c4cccc5c4oc4ccccc45)ncn3)cc2)c1`, the melting point fell in the range of 235 to 238 °C.

`COc1ccc(CC(N)=O)cc1C(=O)NCc1ccc(C(F)(F)F)cc1` returned a melting point of 192 to 193 °C.

`CCCCCCCCCCCCCCOc1ccc(CC(CO)CC2(C)OCCO2)cc1` (stereo not drawn): the melting point was 28 to 29 °C.

In the case of `CC1=C(c2ccncc2)CC(C)C(=O)N1` (stereo not drawn), the melting point lay within 148 to 150 °C.

Consider `CC[C@H](C)[C@H](NS(=O)(=O)c1cccc2ccccc12)C(=O)N[C@@H](Cc1c[nH]c2ccccc12)C(=O)OC`, for which the melting point fell in the range of 172 to 174 °C.

`O=c1sc(=Nc2ccc(Cl)cc2)n2n1CCCC2` had a melting point of 82 to 85 °C.

As to `CC(C)(C)OC(=O)C1CCC(c2ccco2)N1C(=O)OC(C)(C)C` (mixture of isomers), the melting point was found to be 70 °C.

In turn, `CCN1C(=O)CON(C(C)=O)C1c1ccccc1` (stereo not drawn) yielded a melting point of 130 to 132 °C.

Regarding `Nc1ncccc1-c1nc2ccc(Cl)nc2n1-c1ccc(CNC(=O)c2cccc(F)c2)cc1`, the melting point was in the range of 240 to 243 °C.

On to `COC(=O)CCc1cc([N+](=O)[O-])c(O)c(C(C)(C)C)c1`, for which the melting point was in the range of 41 to 42 °C.

With `CC(C)(C)OC(=O)N1CCC[C@H]1c1nc2c(C(F)(F)F)cccc2c(O)c1C(=O)Nc1nccs1`, the melting point is 215 °C.

Molecule `CCOC(=O)Cn1ncc(-c2ccc(OC)cc2)c1-c1ccccc1` showed a melting point of 81 to 84 °C.

For the molecule `CCOC(=O)CCCN1CCn2nc(C(=O)O)cc2C1=O`, the melting point is 175 °C.

Regarding `CC(C)c1nc(COCc2ccccc2)n(Cc2ccccc2)c1Sc1cccc([N+](=O)[O-])c1`, the melting point was 152 to 155 °C.

On to `CC(NC(=O)C(NC(=O)OCC1c2ccccc2-c2ccccc21)C(Cc1ccccc1)C(=O)O)C(=O)O` (stereo not drawn), for which the melting point fell in the range of 114 to 116 °C.

For `Cc1cc(CN2CCC(N(C)S(=O)(=O)c3ccc(Nc4nccc(Nc5ccc(F)c(F)c5)n4)cc3)CC2)no1`, the melting point was in the range of 204 to 206 °C.

In the case of `Fc1ccc2c(c1)Oc1ccccc1-c1nc(S)[nH]c1-2`, the melting point lay within 299 to 300 °C.

On to `CCCN(CCC)C1CCC2=C(CC(OC)=CC2)C1` (stereo not drawn), for which the melting point fell in the range of 47 to 51 °C.

In the case of `O=C(c1ccc(-n2ccnc2)cc1)N1CCN(S(=O)(=O)c2ccc3cc(Br)ccc3c2)CC1`, the melting point fell in the range of 207 to 209 °C.

Molecule `NS(=O)(=O)c1ccc(-c2cc(-c3nc(-c4ccc(Cl)c(Cl)c4)cc(C(F)(F)F)n3)ccn2)s1` had a melting point of 266 °C.

As to `CC1(C)CC(=O)c2c(SCc3ccco3)sc(-c3cc[nH]n3)c2C1`, the melting point was in the range of 198 to 200 °C.

As for `Cc1cc(C)nc(N(C(=O)C(Cl)(Cl)Cl)c2ccccc2)n1`, the melting point lay in the range of 126 to 127 °C.

The molecule `CCOC(=O)c1c(C)nc2c(cnn2CC)c1NCCC(C)O` (stereo not drawn) displayed a melting point of 94.5 to 96.5 °C.

In turn, `Cn1c(C(F)(F)F)cc(=O)n(-c2ccc3snc(C4SCCS4)c3c2)c1=O` yielded a melting point of 227 to 232 °C.

`Cn1nnnc1SCCCC(=O)c1ccco1`: the melting point fell in the range of 41 to 42 °C.

`COC(=O)c1sc2ccc(SC)cc2c1N(C)C` showed a melting point of 63 to 66 °C.

Turning to `CON(Cc1ccc(C(=O)OC(C)(C)C)cc1)C(=O)C1=C(O)C(=O)N(C)C1`, the melting point was in the range of 157 to 160 °C.

Take `CCCC(=O)C1=C(O)CC(c2ccc(OC)c(NC(C)=O)c2)CC1=O` (stereo not drawn): the melting point fell in the range of 102 to 106 °C.

For `CCOC(=O)c1nc(-c2cccc3ccccc23)[nH]c1-c1ccc(C)cc1`, the melting point was in the range of 190 to 192 °C.

Take `Cc1cc(-c2ccc(C(F)(F)F)cc2)nc2c(C(=O)Nc3cccc(S(N)(=O)=O)c3)cnn12`: the melting point lay in the range of 270 to 272 °C.

Consider `CCOC(=O)c1ccc(NC(=O)CC(c2ccc(Cl)cc2)c2ccc(Cl)cc2)cc1`, for which the melting point was in the range of 152 to 155 °C.

In turn, `CCOCc1nc2c(N)nc3cc(-c4cccnc4)ccc3c2n1CC(C)(C)O` gave a melting point of 197 to 199 °C.

`FC(F)(F)C=NNc1c(Cl)cc(C(F)(F)F)cc1Cl` yielded a melting point of 45 to 46 °C.

In turn, `Cc1ccn(-c2ccc(C(=O)O)c(Cl)c2)n1` gave a melting point of 192 to 193 °C.

`CC(=O)OC1=CC2=CCC3C(C(F)CC4(C)C(=O)CCC34)C2CC1` (stereo not drawn) yielded a melting point of 175 to 177 °C.

`COc1ccc(C(O)C(CO)[N+](=O)[O-])cc1OC` (stereo not drawn) showed a melting point of 134 to 138 °C.

Turning to `CC1=C(C)C[C@H]2C(=O)CC(=O)[C@H]2C1`, the melting point was in the range of 157 to 158 °C.

The molecule `Nc1cccc(S(=O)(=O)C(F)(F)C(F)Cl)c1` (stereo not drawn) showed a melting point of 66 to 67.5 °C.

`Oc1ccc(C2=C(c3ccc(OCCCCCI)cc3)c3ccc(O)cc3CCC2)cc1` gave a melting point of 202 to 204 °C.

With `COc1ccc(CCCC(C)=O)cc1S(N)(=O)=O`, the melting point lay in the range of 115 to 116 °C.

For the molecule `O=C(Nc1cccc(C(F)(F)F)c1)Nc1nccnc1C(=O)O`, the melting point was greater than 300 °C.

Take `O=C(NCCc1ccc(O)c(O)c1)c1cccnc1`: the melting point was 156 to 162 °C.

For the molecule `COc1cc2c(cc1OS(N)(=O)=O)CCN(Cc1cccc(NS(C)(=O)=O)c1)C2`, the melting point was 151 to 152 °C.

For `CCC1(CC)c2cc(-c3nc4ccccc4s3)ccc2-c2ccc(N(c3cccc(OC)c3)c3cccc(OC)c3)cc21`, the melting point lay within 178 to 180 °C.

Turning to `Cc1nnc2n1-c1ccc(Cl)cc1C(c1ccccc1Cl)=NN2Cc1ccncc1`, the melting point is 195 to 196 °C.

`Cc1cccc(C)c1NC(=O)N(Cc1ccccc1)CC(c1ccccc1)c1ccccc1` showed a melting point of 205 to 208 °C.

In the case of `N#CCc1cc2ccccc2s1`, the melting point fell in the range of 59 to 61 °C.

In the case of `CC(=O)Nc1ncc(C)cc1Br`, the melting point lay within 65 to 66 °C.

Turning to `COCCOC(=O)Nc1cccc(C)c1CCl`, the melting point lay within 100 to 102 °C.

On to `NC1=NC2CCCc3cccc(c32)N1` (stereo not drawn), for which the melting point lay in the range of 230 to 232 °C.

`CC(C)c1c(C=C(Cl)Cl)c(-c2ccc(F)cc2)c2n1CCCC2` returned a melting point of 118 to 120 °C.

On to `Oc1cccc2c(Cl)ncnc12`, for which the melting point was greater than 252 °C.

Regarding `CC#COc1ccc2oc3ccccc3c(=O)c2c1`, the melting point fell in the range of 153 to 154 °C.

With `CCOC(=O)c1c(C(F)(F)F)nc(C(F)(F)F)c(C)c1OCC(=O)c1ccccc1`, the melting point lay in the range of 95 to 97 °C.
